The results in this text go back to patent US4547513A, “2-Arylbenzothiazoline derivatives and their use in treating angina cordis” (Santen Pharmaceutical Co., Ltd., priority 1983, dated 1985).

The subject of assay [1] is platelet aggregation (rabbit platelet rich plasma). The assay can be described thus: Platelet antiaggregatory activity in rabbit platelet rich plasma in vitro (Pharmacological test II). Format: cell-based. Conditions: Oryctolagus cuniculus, rabbit PRP, 1 minute preincubation at 37° C., induced by collagen (3μg/ml) or ADP (3μM), inducer not given, read-out: Antiaggregation activity IC50 (50% inhibition of the control response). The procedure:
Blood was obtained from an anesthetized rabbit using 0.1 volume of 3.8% sodium citrate as anticoagulant. Platelet rich plasma (PRP) was isolated by centrifugation at 650 rpm for 10 minutes at room temperature. After preincubation of PRP (0.25 ml) with various concentrations of the test compounds (14μl) for 1 minute at 37° C., collagen (3μg/ml: final concentration) or ADP (3μM: final concentration) was added to induce aggregation and the aggregation profiles were monitored by RIKADENKI six-channel aggregometer. The control experiment contained saline instead of the test compound.
The antiaggregatory activity was represented by the concentration of the test compounds which elicited 50% inhibition of the control response.

Another assay has as its system guineapig teania coli. Briefly: Calciumantagonistic activity: inhibition of Ca++-evoked contraction of isolated guineapig teania coli (Pharmacological test I). Conditions: Cavia porcellus, 5 min, Ca++-free-high-K Krebs solution, 32° C., 5 minutes exposure before CaCl2 (3×10^-4M), read-out: Calciumantagonistic activity IC50 (50% inhibition of Ca++-evoked contraction). Format: cell-based. Here is the method: The action potentials on the smooth muscles of uterus, teania coli and portal vein depend on calcium ion, and therefore these smooth muscle preparations are useful for screening of calciumantagonists. We measured the calciumantagonistic activity of the compounds by the method using guineapig teania coli preparation.
Isolated guineapig teania coli was suspended in a 20 ml organ bath with Krebs solution at 32° C. and bubbled with 5% carbon dioxide in oxygen. After equilibration, the muscle was washed with Ca^++ -free Krebs solution, and when the muscle had relaxed to basal level, it was suspended in Ca^++ -free-high-K Krebs solution.
The muscule was exposed to the test compounds for 5 minutes before addition of CaCl2, and the contraction evoked by CaCl2 (3×10^-4M) was recorded isotonically. The calciumantagonistic activity was represented by the concentration of the test compound which elicited 50% inhibition of Ca^++ -evoked contraction (IC50).

Counter-ions that a name gives are not always drawn.

One may read the IC50 as the concentration that gives 50% inhibition. For the compound `COc1ccc(OCCCCN2CCC(C(=O)c3ccc(C)cc3)CC2)c(C2Sc3ccccc3N2C(C)=O)c1` (stereo not shown) [compound 3, 3-Acetyl-2-(5-methoxy-2-[4-[4-(4-methylbenzoyl)-1-piperidyl]butoxy]phenyl]benzothiazoline maleate], in assay [1], the half-maximal inhibitory concentration (IC50) was 3.2 µM. For `COc1ccc(OCCCCN2CCC(C(=O)c3ccc(Cl)cc3)CC2)c(C2Sc3ccccc3N2C(C)=O)c1` (stereo not shown) [compound 4, 3-Acetyl-2-[2-[4-[4-(4-chlorobenzoyl)-1-piperidyl]butoxy]-5-methoxyphenyl]benzothiazoline maleate], the IC50 turned out to be 8.7 µM in the assay with guineapig teania coli and 3.2 µM in assay [1]. As for `COc1ccc(OCCCCN2CCC(C(O)c3ccccc3)CC2)c(C2Sc3ccccc3N2C(C)=O)c1` (stereo not drawn) [compound 5, 3-Acetyl-2-[2-[4-[4-(α-hydroxybenzyl)-1-piperidyl]butoxy]5-methoxyphenyl]benzothiazoline maleate], in the assay with guineapig teania coli, the IC50 came to 8.2 µM.

As for `COc1ccc(OCCCCN2CCC(C(=O)c3ccc(F)cc3)CC2)c(C2Sc3ccccc3N2C(C)=O)c1` (stereo not shown) [compound 6, 3Acetyl-2-[2-[4-[4-(4-fluorobenzoyl)-1-piperidyl]butoxy]-5-methoxyphenyl]benzothiazoline maleate], the figures for the IC50 (with guineapig teania coli; in assay [1]) were 1.6 µM and 0.29 µM, respectively. With `COc1ccc(OCCCCN2CCC(C(=O)Cc3ccccc3)CC2)c(C2Sc3ccccc3N2C(C)=O)c1` (stereo not shown) [compound 7, 3-Acetyl-2-[2-[4-(4-benzylcarbonyl-1piperidyl)butoxy]-5-methoxyphenyl]benzothiazoline maleate], the 50% inhibitory concentration (IC50) in the assay with guineapig teania coli was found to be 3.2 µM.
